Results: ChEMBL document CHEMBL3885861, “Open TG-GATES”

Species on record: Rattus norvegicus
Test: Open TG-GATES - Regimen: Single
Format: toxicity, organism-based, Sprague-Dawley
Set-up: regimen Single, gender Male, age 6 weeks
Conditions: in vivo, po, 1000 mg/kg, route gavage, dose level High; for APTT / Bas / Eos / Fbg / Hb / Ht / Lym / MCH / MCHC / MCV / Mono / Neu / PT / Plat / RBC / Ret / WBC: tissue Blood; for KIDNEY_L / KIDNEY_R / KIDNEY_TOTAL: tissue Kidney; for LIVER: tissue Liver; for A/G / ALP / ALT / AST / BUN / CRE / Ca / Cl / DBIL / GLC / IP / K / LDH / Na / PL / RALB / TBIL / TC / TG / TP / gamma-GTP: tissue Plasma

Q: `CCc1cc(C(N)=S)ccn1` [ETHIONAMIDE] was tested. Which TERMINAL_BW (3 h) did it give?
A: 227.9 g

Q: What about the APTT (3 h) of the same compound?
A: 17.7 s

Q: What about the Bas (3 h) of the same compound?
A: 0%

Q: And the Eos (3 h)?
A: 1%

Q: And the Fbg (3 h)?
A: 212.6 mg/dL

Q: What about the Hb (3 h) of the same compound?
A: 13.7 g/dL

Q: And the Ht (3 h)?
A: 40.6%

Q: And the Lym (3 h)?
A: 70.8%

Q: And the MCH (3 h)?
A: 21.4 pg

Q: And the MCHC (3 h)?
A: 33.8%

Q: What about the MCV (3 h) of the same compound?
A: 63.5 fL

Q: What about the Mono (3 h) of the same compound?
A: 8.4%

Q: And the Neu (3 h)?
A: 19.8%

Q: And the PT (3 h)?
A: 12.4 s

Q: And the Plat (3 h)?
A: 112.8 x10_4/uL

Q: What about the RBC (3 h) of the same compound?
A: 640 x10_4/ul

Q: And the Ret (3 h)?
A: 7.9%

Q: What about the WBC (3 h) of the same compound?
A: 62.9 x10_2/uL

Q: And the KIDNEY_L (3 h)?
A: 1 g

Q: What about the KIDNEY_R (3 h) of the same compound?
A: 1 g

Q: And the KIDNEY_TOTAL (3 h)?
A: 2 g

Q: And the LIVER (3 h)?
A: 11.1 g

Q: What about the A/G (3 h) of the same compound?
A: 1.9

Q: What about the ALP (3 h) of the same compound?
A: 715 IU/L

Q: What about the ALT (3 h) of the same compound?
A: 33.6 IU/L

Q: What about the AST (3 h) of the same compound?
A: 69 IU/L

Q: What about the BUN (3 h) of the same compound?
A: 13.4 mg/dL

Q: And the CRE (3 h)?
A: 0.5 mg/dL

Q: What about the Ca (3 h) of the same compound?
A: 11 mg/dL

Q: And the Cl (3 h)?
A: 100 meq/L

Q: And the DBIL (3 h)?
A: 0.014 mg/dL

Q: And the GLC (3 h)?
A: 202.8 mg/dL

Q: What about the IP (3 h) of the same compound?
A: 9.1 mg/dL

Q: And the K (3 h)?
A: 4 meq/L

Q: And the LDH (3 h)?
A: 106.4 IU/L

Q: What about the Na (3 h) of the same compound?
A: 139.2 meq/L

Q: What about the PL (3 h) of the same compound?
A: 130.4 mg/dL

Q: What about the RALB (3 h) of the same compound?
A: 3.7 g/dL

Q: What about the TBIL (3 h) of the same compound?
A: 0.4 mg/dL

Q: And the TC (3 h)?
A: 78.6 mg/dL

Q: And the TG (3 h)?
A: 46 mg/dL

Q: What about the TP (3 h) of the same compound?
A: 5.7 g/dL

Q: And the gamma-GTP (3 h)?
A: 1.2 IU/L

Q: What about the TERMINAL_BW (6 h) of the same compound?
A: 227.1 g

Q: And the APTT (6 h)?
A: 18.3 s

Q: And the Bas (6 h)?
A: 0%

Q: What about the Eos (6 h) of the same compound?
A: 0.8%

Q: And the Fbg (6 h)?
A: 209.2 mg/dL

Q: And the Hb (6 h)?
A: 14.4 g/dL

Q: And the Ht (6 h)?
A: 43.1%

Q: And the Lym (6 h)?
A: 75.6%

Q: And the MCH (6 h)?
A: 21.9 pg

Q: And the MCHC (6 h)?
A: 33.5%

Q: And the MCV (6 h)?
A: 65.3 fL

Q: And the Mono (6 h)?
A: 7.6%

Q: What about the Neu (6 h) of the same compound?
A: 16%

Q: What about the PT (6 h) of the same compound?
A: 13.8 s

Q: And the Plat (6 h)?
A: 118.7 x10_4/uL

Q: And the RBC (6 h)?
A: 659.2 x10_4/ul

Q: What about the Ret (6 h) of the same compound?
A: 7.9%

Q: What about the WBC (6 h) of the same compound?
A: 98.1 x10_2/uL

Q: What about the KIDNEY_L (6 h) of the same compound?
A: 1 g

Q: What about the KIDNEY_R (6 h) of the same compound?
A: 1 g

Q: What about the KIDNEY_TOTAL (6 h) of the same compound?
A: 2 g

Q: What about the LIVER (6 h) of the same compound?
A: 10.4 g

Q: What about the A/G (6 h) of the same compound?
A: 1.8

Q: What about the ALP (6 h) of the same compound?
A: 679 IU/L

Q: What about the ALT (6 h) of the same compound?
A: 33.8 IU/L

Q: And the AST (6 h)?
A: 74.8 IU/L

Q: What about the BUN (6 h) of the same compound?
A: 16 mg/dL

Q: And the CRE (6 h)?
A: 0.5 mg/dL

Q: And the Ca (6 h)?
A: 10.9 mg/dL

Q: What about the Cl (6 h) of the same compound?
A: 102.8 meq/L

Q: What about the DBIL (6 h) of the same compound?
A: 0.004 mg/dL

Q: And the GLC (6 h)?
A: 192.4 mg/dL

Q: And the IP (6 h)?
A: 9.4 mg/dL

Q: What about the K (6 h) of the same compound?
A: 4 meq/L

Q: What about the LDH (6 h) of the same compound?
A: 119.2 IU/L

Q: What about the Na (6 h) of the same compound?
A: 139.2 meq/L

Q: What about the PL (6 h) of the same compound?
A: 111.8 mg/dL

Q: What about the RALB (6 h) of the same compound?
A: 3.6 g/dL

Q: And the TBIL (6 h)?
A: 0.5 mg/dL

Q: What about the TC (6 h) of the same compound?
A: 62.4 mg/dL

Q: And the TG (6 h)?
A: 17.8 mg/dL

Q: And the TP (6 h)?
A: 5.6 g/dL

Q: What about the gamma-GTP (6 h) of the same compound?
A: 1.2 IU/L

Q: And the TERMINAL_BW (9 h)?
A: 224.3 g

Q: And the APTT (9 h)?
A: 18.3 s

Q: And the Bas (9 h)?
A: 0%

Q: And the Eos (9 h)?
A: 1.2%

Q: And the Fbg (9 h)?
A: 209 mg/dL

Q: And the Hb (9 h)?
A: 14 g/dL

Q: What about the Ht (9 h) of the same compound?
A: 41.3%

Q: And the Lym (9 h)?
A: 73.8%

Q: What about the MCH (9 h) of the same compound?
A: 21.2 pg

Q: And the MCHC (9 h)?
A: 33.8%

Q: And the MCV (9 h)?
A: 62.8 fL

Q: And the Mono (9 h)?
A: 8.4%

Q: And the Neu (9 h)?
A: 16.8%

Q: And the PT (9 h)?
A: 14.6 s

Q: And the Plat (9 h)?
A: 121.3 x10_4/uL

Q: And the RBC (9 h)?
A: 657 x10_4/ul

Q: And the Ret (9 h)?
A: 7.5%

Q: And the WBC (9 h)?
A: 77.3 x10_2/uL

Q: And the KIDNEY_L (9 h)?
A: 1 g

Q: What about the KIDNEY_R (9 h) of the same compound?
A: 1 g

Q: What about the KIDNEY_TOTAL (9 h) of the same compound?
A: 2 g

Q: What about the LIVER (9 h) of the same compound?
A: 9.7 g

Q: And the A/G (9 h)?
A: 1.9

Q: What about the ALP (9 h) of the same compound?
A: 641 IU/L

Q: What about the ALT (9 h) of the same compound?
A: 36.2 IU/L

Q: What about the AST (9 h) of the same compound?
A: 75.2 IU/L

Q: And the BUN (9 h)?
A: 16.4 mg/dL

Q: And the CRE (9 h)?
A: 0.5 mg/dL

Q: What about the Ca (9 h) of the same compound?
A: 10.6 mg/dL

Q: And the Cl (9 h)?
A: 104.6 meq/L

Q: What about the DBIL (9 h) of the same compound?
A: 0.018 mg/dL

Q: What about the GLC (9 h) of the same compound?
A: 202 mg/dL

Q: And the IP (9 h)?
A: 9.6 mg/dL

Q: And the K (9 h)?
A: 4.3 meq/L

Q: What about the LDH (9 h) of the same compound?
A: 99 IU/L

Q: What about the Na (9 h) of the same compound?
A: 140.6 meq/L

Q: What about the PL (9 h) of the same compound?
A: 107.8 mg/dL

Q: And the RALB (9 h)?
A: 3.5 g/dL

Q: And the TBIL (9 h)?
A: 0.4 mg/dL

Q: And the TC (9 h)?
A: 59.4 mg/dL

Q: And the TG (9 h)?
A: 14.8 mg/dL

Q: And the TP (9 h)?
A: 5.3 g/dL

Q: What about the gamma-GTP (9 h) of the same compound?
A: 1.2 IU/L

Q: What about the TERMINAL_BW (24 h) of the same compound?
A: 219.4 g

Q: And the APTT (24 h)?
A: 18.9 s

Q: What about the Bas (24 h) of the same compound?
A: 0%

Q: And the Eos (24 h)?
A: 1.6%

Q: What about the Fbg (24 h) of the same compound?
A: 186.4 mg/dL

Q: And the Hb (24 h)?
A: 15.3 g/dL

Q: What about the Ht (24 h) of the same compound?
A: 45.1%

Q: What about the Lym (24 h) of the same compound?
A: 62.2%

Q: And the MCH (24 h)?
A: 22.2 pg

Q: And the MCHC (24 h)?
A: 34%

Q: What about the MCV (24 h) of the same compound?
A: 65.3 fL

Q: What about the Mono (24 h) of the same compound?
A: 7.8%

Q: What about the Neu (24 h) of the same compound?
A: 28.2%

Q: What about the PT (24 h) of the same compound?
A: 15.4 s

Q: What about the Plat (24 h) of the same compound?
A: 118 x10_4/uL

Q: What about the RBC (24 h) of the same compound?
A: 691.2 x10_4/ul

Q: And the Ret (24 h)?
A: 8.3%

Q: What about the WBC (24 h) of the same compound?
A: 63.3 x10_2/uL

Q: And the KIDNEY_L (24 h)?
A: 1 g

Q: What about the KIDNEY_R (24 h) of the same compound?
A: 1 g

Q: And the KIDNEY_TOTAL (24 h)?
A: 2 g

Q: And the LIVER (24 h)?
A: 10.1 g

Q: And the A/G (24 h)?
A: 2

Q: And the ALP (24 h)?
A: 839.2 IU/L

Q: And the ALT (24 h)?
A: 36.6 IU/L

Q: And the AST (24 h)?
A: 68.6 IU/L

Q: What about the BUN (24 h) of the same compound?
A: 13 mg/dL

Q: And the CRE (24 h)?
A: 0.6 mg/dL

Q: And the Ca (24 h)?
A: 10.3 mg/dL

Q: And the Cl (24 h)?
A: 102.2 meq/L

Q: What about the DBIL (24 h) of the same compound?
A: 0.054 mg/dL

Q: And the GLC (24 h)?
A: 228.8 mg/dL

Q: And the IP (24 h)?
A: 8.3 mg/dL

Q: And the K (24 h)?
A: 3.9 meq/L

Q: And the LDH (24 h)?
A: 87.6 IU/L

Q: What about the Na (24 h) of the same compound?
A: 140.8 meq/L

Q: What about the PL (24 h) of the same compound?
A: 86.6 mg/dL

Q: What about the RALB (24 h) of the same compound?
A: 3.6 g/dL

Q: And the TBIL (24 h)?
A: 0.4 mg/dL

Q: And the TC (24 h)?
A: 41.4 mg/dL

Q: And the TG (24 h)?
A: 41.8 mg/dL

Q: And the TP (24 h)?
A: 5.3 g/dL

Q: And the gamma-GTP (24 h)?
A: 0.4 IU/L
